{"source": "patent US8486429B2", "about": "“Storage stable formulation and a process for its preparation” (priority 2005, dated 2013)", "key": {"[1]": {"details": "cited from earlier work; for DT50 (hydrolysis): 40° C.; for DT 50 (calculated) (hydrolysis): 20° C."}, "[2]": {"test_system": "rabbits", "details": "cited from earlier work"}, "[3]": {"details": "cited from earlier work"}, "[4]": {"test_system": "rats", "details": "cited from earlier work"}, "[5]": {"test_system": "mice", "details": "cited from earlier work"}, "[6]": {"test_system": "rats", "details": "cited from earlier work", "remark": "listed apart in the source"}, "[7]": {"test_system": "rats", "details": "cited from earlier work", "remark": "listed apart in the source"}, "[8]": {"experiment": "AHS stability study in trilaminated pouches, 14 days at 30, 45 and 54° C.: active content and pH of 1% aq. solution/suspension", "format": "physicochemical", "details": "for extent to which Acephate degrades: 54° C.", "procedure": "Acephate technical of 97.5% purity was taken and kept in AHS stability study at 30, 45 and 54° C. in trilaminated pouches. The results of the AHS experiment for Acephate Technical are seen in the following Tables 1, 2 and 3.\n40 gm Acephate technical of 97.5% purity was taken from plant and mixed with 10 gm of citric acid by using laboratory made mixture to obtained homogenious powder and is then kept in AHS at 30, 45 and 54° C. in trilaminated pouches.\n40 gm Acephate technical of 97.5% purity was taken from plant and mixed with 5 gm of citric acid by using laboratory made mixture to obtained homogenious powder and is the kept in AHS at 30, 45 and 54° C. in trilaminated pouches.\n48 gm Acephate technical of 97.5% purity was taken from plant and mixed with 2 gm of citric acid by using laboratory made mixture to obtained homogenious powder and is the kept in AHS at 30, 45 and 54° C. in trilaminated pouches.\nAcephate technical of 97.5% purity was taken from the plant and mixed in a laboratory mixer by adding 1% water and was then kept in AHS stability study at 30° C., 45° C. and 54° C. in trilaminated pouches.\nAcephate technical of 97.5% purity was taken from the plant and mixed in laboratory mixer by adding 1% water 4% citric acid and was then kept in AHS stability study at 30, 45 and 54° C. in trilaminated pouches.\nImidacloprid technical was taken from the plant and is kept in AHS stability study at 30, 45 and 54° C. in trilaminated pouches.\nImidacloprid technical was taken from the plant and mixed in laboratory mixer by adding 1% water and is then is kept in AHS stability study at 45 and 54° C. in trilaminated pouches.\n40 gm of Imidacloprid technical and 10 gm of citric acid was mixed in laboratory mixer and was then kept in AHS stability study at 30, 45 and 54° C. in trilaminated pouches,\n45 gm of Imidacloprid technical and 05 gm of citric acid was mixed in laboratory mixer and was then kept in AHS stability study at 30° C., 45° C. and 54° C. in trilaminated pouches.\n48 gm of Imidacloprid technical and 2 gm of citric acid was mixed in laboratory mixer and was then kept in AHS stability study at 30, 45 and 54° C. in trilaminated pouches.\n49.5 gm of Imidacloprid technical and 0.5 gm of citric acid was mixed in laboratory mixer and was then kept in AHS stability study at 30, 45 and 54° C. in trilaminated pouches.\nImidacloprid technical was taken from plant and mixed in laboratory mixer by adding 10 gm citric acid and 2 gm water and is then is kept in AHS stability study at 30, 45 and 54° C. in trilaminated pouches,\nImidacloprid technical was taken from the plant and mixed in laboratory mixer by adding 5 gm citric acid and 2 gm water and was then kept in AHS stability study at 30, 45 and 54° C. in trilaminated pouches.\n53 gm of Acephate technical was taken from the plant and mixed in a laboratory mixer by adding 3 gm imidacloprid without coating and without any citric acid. This was then kept in AHS stability study at 30, 45 and 54° C. in trilaminated pouches.\n53 gm of Acephate technical was taken from the plant and mixed in a laboratory mixer by adding 3 gm imidacloprid without encapsulation and with 2.2 gm of citric acid . This was then kept in AHS stability study at 30, 45 and 54° C. in trilaminated pouches.\nIn a laboratory plough shear mixture 291.5 gm of Imidacloprid of particle size ranging from 15 micron to 50 micron was charged and blended by operating only the plough. Then 204 gm PEG-8000 was heated in a separate vessel at 65° C. for 15 min. […]"}, "[9]": {"test_system": "crop plants", "details": "in vivo; cited from earlier work"}, "[10]": {"test_system": "insect", "experiment": "Synergistic insecticidal effect of Imidacloprid + Acephate (mortality, Colby's method)", "format": "in vivo", "procedure": "Synergism can be calculated by using the Colby's method i.e. the expected (or predicted) response of the combination is calculated by taking the product of the observed response for each individual component of the combination when applied alone divided by 100 and subtracting this value from the sum of observed response for each component when applied alone. Synergism of the combination is then determined by comparing the observed response of the combination to the expected (or predicted) response as calculated from the observed response of each individual component alone. If the observed response of the combination is greater than the expected (or predicted) response then the combination is said to be synergistic and falls within the definition of synergistic effect. (Colby, S. R., Weeds, 1967(15), p. 20-22)"}, "[11]": {"details": "in vivo; cited from earlier work"}, "[12]": {"details": "mammals, oral administration, within 24 hours, almost entirely in the urine; cited from earlier work"}}, "note": "Where two headings read alike, the source gives them in different places."}
{"smiles": "C/C(=N\\C#N)N(C)Cc1ccc(Cl)nc1", "note": "[Acetamiprid]", "values": [{"measurement": "stability in buffered solutions", "setting": "[1]; pH 4, 5, 7", "value": "Stable"}, {"measurement": "stability", "setting": "[1]; pH 9 and 45° C.", "value": "Degraded slowly"}, {"measurement": "stability under sunlight", "setting": "[1]; sunlight", "value": "Stable"}, {"measurement": "irritation to skin and eyes", "setting": "[2]", "value": "Non irritating"}, {"measurement": "solubility in organic solvents", "setting": "[3]; acetone, methanol, ethanol, dichloromethane, chloroform, acetonitrile and tetrahydrofuron", "value": "soluble"}, {"measurement": "Acute percutaneous LD50", "setting": "[4]; male and female rats", "value": "> 2000", "unit": "mg/kg"}, {"measurement": "acute oral LD50", "setting": "[5]; female mice", "value": 184, "unit": "mg/kg"}, {"measurement": "acute oral LD50", "setting": "[5]; male mice", "value": 198, "unit": "mg/kg"}, {"measurement": "acute oral LD50", "setting": "[6]; female rats", "value": 146, "unit": "mg/kg"}, {"measurement": "acute oral LD50", "setting": "[6]; male rats", "value": 217, "unit": "mg/kg"}, {"measurement": "inhalation LC50 (4 h)", "setting": "[7]; male and female rats", "value": "> 0.29", "unit": "mg/L"}]}
{"smiles": "COP(=O)(NC(C)=O)SC", "note": "(stereo not shown) [Experiment 1, O,S-dimethylacetylphosphoramidothioate]", "values": [{"measurement": "DT50 (hydrolysis)", "setting": "[1]; pH 3", "value": 710, "unit": "h"}, {"measurement": "DT50 (hydrolysis)", "setting": "[1]; pH 9", "value": 60, "unit": "h"}, {"measurement": "extent to which Acephate degrades", "setting": "[8]; presence of 1% moisture, absence of Citric acid, initial pH of 4.70", "value": 12.84, "unit": "%"}, {"measurement": "extent to which Acephate degrades", "setting": "[8]; presence of Citric acid and 1% moisture, initial pH 3.18", "value": 6.88, "unit": "%"}, {"measurement": "phytotoxicity", "setting": "[9]", "value": "non-phytotoxic to most crop plants"}, {"measurement": "solubility in ethanol", "setting": "[3]; 20° C.", "value": "> 100", "unit": "mg/mL"}, {"measurement": "solubility in water", "setting": "[3]; 20° C.", "value": "about 790 g/l"}, {"measurement": "Observed Mortality %", "setting": "[10]; Imidacloprid 0 ppm, Acephate 600 ppm", "value": 52.50, "unit": "%"}, {"measurement": "Observed Mortality %", "setting": "[10]; Imidacloprid 0 ppm, Acephate 700 ppm", "value": 60.00, "unit": "%"}, {"measurement": "Observed Mortality %", "setting": "[10]; Imidacloprid 0 ppm, Acephate 800 ppm", "value": 70.00, "unit": "%"}]}
{"smiles": "O=[N+]([O-])NC1=NCCN1Cc1ccc(Cl)nc1", "note": "[Experiment 7, 1-(6-chloro-3-pyridylmet-hyl)-N-nitroimidazolidin-2-yldeneamine]", "values": [{"measurement": "Stability of imidacloprid reported in literature", "setting": "[1]; pH of 5.60", "value": "stable"}, {"measurement": "Stability of Imidacloprid", "setting": "[8]; pH of 2.68, Imidacloprid:citric acid 40:10", "value": "still more unstable"}, {"measurement": "Stability of Imidacloprid", "setting": "[8]; pH of 3.60, Imidacloprid:Citric acid 49.5:0.5", "value": "unstable"}, {"measurement": "Stability of Imidacloprid", "setting": "[8]; pH of 5.90", "value": "stable"}, {"measurement": "skin sensitisation", "setting": "[11]", "value": "Not a skin sensitiser"}, {"measurement": "irritation to skin and eyes", "setting": "[2]", "value": "Non irritating"}, {"measurement": "solubility in hexane", "setting": "[3]; 20° C.", "value": "< 0.1", "unit": "mg/mL"}, {"measurement": "Acute percutaneous LD50 (24 h)", "setting": "[4]; rats, 24 h", "value": "> 5000", "unit": "mg/kg"}, {"measurement": "Observed Mortality %", "setting": "[10]; Imidacloprid 24 ppm, Acephate 0 ppm", "value": 55.00, "unit": "%"}, {"measurement": "Observed Mortality %", "setting": "[10]; Imidacloprid 27 ppm, Acephate 0 ppm", "value": 69.25, "unit": "%"}, {"measurement": "Observed Mortality %", "setting": "[10]; Imidacloprid 30 ppm, Acephate 0 ppm", "value": 72.10, "unit": "%"}, {"measurement": "inhalation LC50 (4 h)", "setting": "[7]; female rats, aerosol", "value": "> 5323", "unit": "mg/m^3 air"}]}
{"smiles": "CCN(CC)C(=O)C(Cl)=C(C)OP(=O)(OC)OC", "note": "[Phosphamidon, 2-chloro-2-diethylcarbamoyl-1-methylvinyldimethylphosphate]", "values": [{"measurement": "DT 50 (calculated) (hydrolysis)", "setting": "[1]; pH 5", "value": 60, "unit": "days"}, {"measurement": "DT 50 (calculated) (hydrolysis)", "setting": "[1]; pH 7", "value": 54, "unit": "days"}, {"measurement": "DT 50 (calculated) (hydrolysis)", "setting": "[1]; pH 9", "value": 12, "unit": "days"}, {"measurement": "% of the dose excreted", "setting": "[12]", "value": "85-90%"}]}
